# US11890288B2, “Sulfonamide or sulfinamide compound having effect of inducing BRD4 protein degradation and pharmaceutical use thereof” (MITSUBISHI TANABE PHARMA CORPORATION, priority 2020, dated 2024)
# Marks after values point to notes of the source that are not given here.
# How the values were obtained:
# [1] = tested on: human chronic myeloid leukemia K562 cell; experiment: Cytotoxic action on K562 cells (WST-8, 96 hr); type: cell-based; conditions: K562, 96 hr
# Experimental: (§1) The cytotoxic action of the compound of the present invention against human cancer cells was evaluated in vitro. In this experiment, (+)-JQ1 (Nature volume 468, pages 1067-1073 (23 Dec. 2010)) known to have an inhibitory activity on the binding of BRD4 protein and a ligand therefor was used as a positive control drug. Respective cells were suspended in 10% FBS/RPMI1640, seeded in a 96 well plate and cultured at 5% CO2, 37° C. overnight. A test compound dissolved in DMSO was diluted with 10% FBS/RPMI1640 and added and the cells were further cultured for 96 hr. After culturing, the viable cell number was measured using a cell number measurement WST-8 kit (Kishida Chemical Co., Ltd.). As a control, the measurement was performed under conditions free of the test compound. The cytotoxic activity of the compound of the present invention against human prostate cancer LNCaP cells is shown in IC50 value in Table 1. The IC50 value is a concentration of the compound showing 50% cell survival rate when the cell survival rate thereof under compound untreated condition is 100%. It was calculated from the straight line connecting the cell survival rate at two points enclosing the 50% cell survival rate and the compound concentration. […]
# [2] = tested on: human breast cancer ZR-75-1 cell; experiment: Cytotoxic action on ZR-75-1 cells (WST-8, 96 hr); type: cell-based; conditions: ZR-75-1, 96 hr
# Experimental: as §1
# [3] = tested on: human castration-resistant prostate cancer PC-3 cell; experiment: Cytotoxic action on PC-3 cells (WST-8, 96 hr); type: cell-based; conditions: PC-3, 96 hr
# Experimental: as §1
# [4] = tested on: human acute myeloid leukemia MV-4-11 cell transplanted mouse; experiment: Antitumor effect of 1 week intermittent administration to MV-4-11 cell transplanted mouse (tail vein, days 1 and 8); type: in vivo; conditions: tumor weight on day 15
# Experimental: The in vivo antitumor effect of the compound of the present invention was studied using human acute myeloid leukemia MV-4-11 cell transplanted mouse. MV-4-11 cells were subcutaneously transplanted into the inguinal region of male, 6-week-old BALB/c nude mouse (5×10^6 cells/mouse). The compound of the present invention was administered into the tail vein on days 1 and 8 from the time point when the assumed tumor volume determined from ½ab^2 (a is major axis and b is minor axis of tumor) reached about 200 mm^3 (day 1). The control group was administered with a solvent, 10% Kolliphor ELP/5% ethanol/85% saline solution. On day 15, the tumor was isolated, the weight was measured, and the tumor growth inhibitory rate IR (%) was calculated by the following formula. tumor growth inhibitory rate IR (%)={1−(average tumor weight of administration group/average tumor weight of nonadministration control group)}×100(%)
# [5] = tested on: human multiple myeloma MM.1S cell; experiment: Cytotoxic action on MM.1S cells (WST-8, 96 hr); type: cell-based; conditions: MM1.S
# Experimental: as §1
# [6] = tested on: human pancreatic cancer BxPC-3 cell; experiment: Cytotoxic action on BxPC-3 cells (WST-8, 96 hr); type: cell-based; conditions: BxPC-3, 96 hr
# Experimental: as §1
# BRD4 protein = BRD4 protein (Homo sapiens (Human), UniProt O60885); experiment: Inhibitory action on binding of BRD4 protein and acetylated histone H4 (TR-FRET); conditions: BRD4-1 (GST) and acetylated histone H4 peptide, 3 hr
# Experimental: The inhibitory action of the compound of the present invention on the binding of BRD4 protein and a ligand thereof (acetylated histone H4) was evaluated by the time-resolved fluorescence resonance energy transfer (TR-FRET) method using EPIgeneous™ Binding Domain Kit A (Cisbio), BRD4-1 (GST) (Reaction Biology Corp) and [Lys(Ac)5/8/12/16]-Histone H4(1-21)-GGK (Biotin) (Eurogentec). In this experiment, (+)-JQ1 (Nature volume 468, pages 1067-1073 (23 Dec. 2010)) known to have an inhibitory activity on the binding of BRD4 protein and acetylated histone H4 therefor was used as a positive control drug. A test compound dissolved in DMSO was diluted with attached Diluent Buffer, added to a 384 well white plate, and BRD4-1 (GST) and [Lys(Ac)5/8/12/16]-Histone H4(1-21)-GGK (Biotin) were further added. Thereafter, Streptavidin-d2 conjugate and Anti-GST-Eu^3+ Cryptate Conjugate were added and the cells were incubated at room temperature for 3 hr. The binding amount of the BRD4 protein and acetylated histone H4 was measured as the fluorescence intensity (excitation: 314 nm/emission: 620 nm and excitation: 314 nm/emission: 665 nm). […] It was calculated from the straight line connecting the degradation rate at two points enclosing the 50% fluorescence intensity and the compound concentration.
compound,measurement,setting,value
"COC(=O)C[C@@H]1N=C(c2ccc(-c3ccc(C(=O)NCc4ccc(S(=O)(=O)Nc5ccc(C)c6c(C#N)c[nH]c56)cc4)cc3)cc2)c2c(sc(C)c2C)-n2c(C)nnc21 [Example 1, methyl [(6S)-4-{4′-[({4-[(3-cyano-4-methyl-1H-indol-7-yl)sulfamoyl]phenyl}methyl)carbamoyl][1,1′-biphenyl]-4-yl}-2,3,9-trimethyl-6H-thieno[3,2-f][1,2,4]triazolo[4,3-a][1,4]diazepin-6-yl]acetate]",IC50,[1],1.7 nM
same,IC50,[2],27 nM
same,IC50,[3],0.88 nM
same,tumor growth inhibitory rate,[4]; 4 mg/kg/day,56** %
same,tumor growth inhibitory rate,[4]; 12.5 mg/kg/day,92** %
same,IC50,[5],0.026 nM
same,IC50,[6],3.3 nM
same,IC50,BRD4 protein,29 nM
